One test concerns the target T1, TDO (Homo sapiens, UniProt P48775).
T1 construct: His tag (N); made in house; host or cells: E. coli
The test is described as follows: TDO enzymatic assay. The note with it: geometric mean; read-out: TDO GMean: IC50 (μM) (Biochemical Assay). In outline: (§1)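 Kynurenine formed after TCA hydrolysis (30 min, 50 °C) was quantified relative to full-reaction and no-enzyme controls, and IC50s were fitted. TDO reactions used 1 nM enzyme with 350 μM Trp and 0.4 μM methylene blue for 70 min; IDO reactions used 6 nM enzyme, 10 μM Trp, 5 μM methylene blue for 20 min; both at pH 6.5, room temperature.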

Test [1] has as its target T2, IDO1-expressing HEK293 cell clones (Homo sapiens, UniProt P14902).
T2 construct: expressed in transfected cells; host or cells: HEK293
The test is described as follows: Cell based kynurenine assay, IDO1-expressing HEK293 cell clones. The following applies: HEK293 cells, 24 hours of incubation, geometric mean; read-out: HEK293 IDO1 Kynurenine GMean IC50 (μM) (Cellular Assay). The method in brief:
(§2)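 IC50s come from nonlinear regression of % inhibition of kynurenine in culture supernatant after 24 hours of compound exposure. Controls were 0.2% DMSO-treated cells and media alone. Cells were stable human IDO1- or TDO-expressing HEK293 clones (CMV promoter), plated at 2.5×10^4 per well.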

For test [2], the target named is T3, TDO-expressing HEK293 cell clones (Homo sapiens, UniProt P48775).
T3 construct: expressed in transfected cells; host or cells: HEK293
Description: Cell based kynurenine assay, TDO-expressing HEK293 cell clones. The following applies: HEK293 cells, 24 hours of incubation, geometric mean; read-out: HEK293 TDO Kynurenine GMean IC50 (μM) (Cellular Assay). In outline: as §2

The next test concerns the target T4, IDO1 (Homo sapiens, UniProt P14902).
T4 construct: His tag (N); made in house; host or cells: E. coli
The test is described as follows: IDO enzymatic assay. The note with it: geometric mean; read-out: IDO1 GMean: IC50 (μM) (Biochemical Assay). In kind it is biochemical. The method in brief:
as §1

T4 sequence (P14902 whole entry): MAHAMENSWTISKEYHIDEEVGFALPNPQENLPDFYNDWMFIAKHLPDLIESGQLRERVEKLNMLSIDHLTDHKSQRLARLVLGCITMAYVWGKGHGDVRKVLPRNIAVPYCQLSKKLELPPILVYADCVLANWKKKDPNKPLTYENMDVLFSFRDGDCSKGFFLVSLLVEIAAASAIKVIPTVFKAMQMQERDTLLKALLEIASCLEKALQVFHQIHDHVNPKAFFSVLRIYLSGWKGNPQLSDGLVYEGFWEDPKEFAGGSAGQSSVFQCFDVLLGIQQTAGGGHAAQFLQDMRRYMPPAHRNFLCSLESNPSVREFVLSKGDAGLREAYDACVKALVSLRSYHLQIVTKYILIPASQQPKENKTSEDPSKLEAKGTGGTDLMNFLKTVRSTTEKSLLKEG
T2 sequence (P14902 whole entry): as above
T1 sequence (P48775 whole entry): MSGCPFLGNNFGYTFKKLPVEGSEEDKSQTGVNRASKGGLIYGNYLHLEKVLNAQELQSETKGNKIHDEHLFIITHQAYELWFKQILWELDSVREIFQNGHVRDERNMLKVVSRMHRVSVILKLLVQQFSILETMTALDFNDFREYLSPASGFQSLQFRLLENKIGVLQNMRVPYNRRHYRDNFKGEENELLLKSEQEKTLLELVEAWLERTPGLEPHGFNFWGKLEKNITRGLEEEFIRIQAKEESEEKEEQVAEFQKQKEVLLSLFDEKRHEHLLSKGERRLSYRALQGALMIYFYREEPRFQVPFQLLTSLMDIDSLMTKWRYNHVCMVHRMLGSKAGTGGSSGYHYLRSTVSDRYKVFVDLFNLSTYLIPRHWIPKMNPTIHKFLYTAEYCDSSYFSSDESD
T3 sequence (P48775 whole entry): as above

Regarding `CC(C)(C1CCN(C(=O)CO)CC1)[C@@H](O)c1cc(Cl)cc2[nH]ncc12` [Compound P-0146, (R)-1-(4-(1-(6-chloro-1H-indazol-4-yl)-1-hydroxy-2-methylpropan-2-yl)piperidin-1-yl)-2-hydroxyethan-1-one], the IC50 on TDO is 0.0001 to 10 µM; in test [1] it was > 10 µM; in test [2] it was 0.0001 to 10 µM; on IDO1, 0.0001 to 10 µM.
Consider `O=C(NC1CC(F)(F)C1)N1CCC(C(F)(F)C(=O)c2c(F)c(Cl)cc3cn[nH]c23)CC1` [Compound P-0040, 4-(2-(5-chloro-6-fluoro-1H-indazol-7-yl)-1,1-difluoro-2-oxoethyl)-N-(3,3-difluorocyclobutyl)piperidine-1-carboxamide], for which the IC50 (on TDO; in test [1]; in test [2]; on IDO1) was 0.0001 to 10 µM each time.
As for `O=C(NCCCF)N1CCC(C(F)(F)C(=O)c2c(F)c(Cl)cc3cn[nH]c23)CC1` [Compound P-0043, 4-(2-(5-chloro-6-fluoro-1H-indazol-7-yl)-1,1-difluoro-2-oxoethyl)-N-(3-fluoropropyl)piperidine-1-carboxamide], the IC50 at TDO is 0.0001 to 10 µM; in test [1], 0.0001 to 10 µM; in test [2], > 10 µM; at IDO1, 0.0001 to 10 µM.
In the case of `CC(C)(C1CCN(C(=O)NCCN2CCOCC2)CC1)[C@H](O)c1cc(Cl)cc2cn[nH]c12` [Compound P-0020, (S)-4-(1-(5-chloro-1H-indazol-7-yl)-1-hydroxy-2-methylpropan-2-yl)-N-(2-morpholinoethyl)piperidine-1-carboxamide], the IC50 (at TDO; in test [1]; in test [2]; on IDO1) was 0.0001 to 10 µM in each case.
For `CC(C)(C1CCN(C(=O)CO)CC1)[C@H](O)c1cc(Cl)cc2[nH]ncc12` [Compound P-0145, (S)-1-(4-(1-(6-chloro-1H-indazol-4-yl)-1-hydroxy-2-methylpropan-2-yl)piperidin-1-yl)-2-hydroxyethan-1-one], the IC50 on TDO is 0.0001 to 10 µM; in test [1] it was > 10 µM; in test [2], 0.0001 to 10 µM; on IDO1, 0.0001 to 10 µM.
With `CC(C)(C1CCN(C(=O)N[C@H]2CCOC2)CC1)C(O)c1cc(Cl)cc2[nH]ncc12` (stereo partly drawn) [Compound P-0114, 4-(1-(6-chloro-1H-indazol-4-yl)-1-hydroxy-2-methylpropan-2-yl)-N-((S)-tetrahydrofuran-3-yl)piperidine-1-carboxamide], the IC50 (on TDO; in test [1]; in test [2]; at IDO1) was 0.0001 to 10 µM each time.
Regarding `CN(O)C(=O)N1CCC(C(C)(C)[C@H](O)c2cc(Cl)cc3cn[nH]c23)CC1` [Compound P-0129, (S)-4-(1-(5-chloro-1H-indazol-7-yl)-1-hydroxy-2-methylpropan-2-yl)-N-hydroxy-N-methylpiperidine-1-carboxamide], the IC50 (on TDO; in test [1]; in test [2]; on IDO1) was 0.0001 to 10 µM each time.
Regarding `CC(C)(C1CCN(C(=O)NOCc2ccccc2)CC1)[C@H](O)c1cc(Cl)cc2cn[nH]c12` [Compound P-0123, (S)-N-(benzyloxy)-4-(1-(5-chloro-1H-indazol-7-yl)-1-hydroxy-2-methylpropan-2-yl)piperidine-1-carboxamide], the IC50 (at TDO; in test [1]; in test [2]; at IDO1) was 0.0001 to 10 µM throughout.
For the molecule `CC(C)(C1CCN(C(=O)NCC2CC2)CC1)C(O)c1cc(Cl)cc2[nH]ncc12` (stereo not drawn) [Compound P-0080, 4-(1-(6-chloro-1H-indazol-4-yl)-1-hydroxy-2-methylpropan-2-yl)-N-(cyclopropylmethyl)piperidine-1-carboxamide], the concentration for half-maximal inhibition (IC50) (on TDO; in test [1]; in test [2]; on IDO1) was 0.0001 to 10 µM throughout.
Consider `CC(C)(C1CCN(C(=O)CC#N)CC1)C(O)c1cc(Cl)cc2[nH]ncc12` (stereo not drawn) [Compound P-0047, 3-(4-(1-(6-chloro-1H-indazol-4-yl)-1-hydroxy-2-methylpropan-2-yl)piperidin-1-yl)-3-oxopropanenitrile], for which the IC50 (on TDO; in test [1]; in test [2]; at IDO1) was 0.0001 to 10 µM throughout.
With `CCNC(=O)N1CCC(C(F)(F)C(=O)c2c(F)c(Cl)cc3cn[nH]c23)CC1` [Compound P-0035, 4-(2-(5-chloro-6-fluoro-1H-indazol-7-yl)-1,1-difluoro-2-oxoethyl)-N-ethylpiperidine-1-carboxamide], the IC50 (on TDO; in test [1]; in test [2]; at IDO1) was 0.0001 to 10 µM each time.
Consider `O=C(NC1CCC(F)(F)CC1)N1CCC(C(F)(F)C(=O)c2c(F)c(Cl)cc3cn[nH]c23)CC1` [Compound P-0041, 4-(2-(5-chloro-6-fluoro-1H-indazol-7-yl)-1,1-difluoro-2-oxoethyl)-N-(4,4-difluorocyclohexyl)piperidine-1-carboxamide], for which the IC50 (at TDO; in test [1]; in test [2]; on IDO1) was 0.0001 to 10 µM throughout.
Consider `CC(C)(C1CCN(C(=O)Nc2ccc(Cl)nc2)CC1)[C@H](O)c1cc(Cl)cc2cn[nH]c12` [Compound P-0032, (S)-4-(1-(5-chloro-1H-indazol-7-yl)-1-hydroxy-2-methylpropan-2-yl)-N-(6-chloropyridin-3-yl)piperidine-1-carboxamide], for which the IC50 at TDO was 0.0001 to 10 µM; in test [1], 0.0001 to 10 µM; in test [2], > 10 µM; at IDO1, 0.0001 to 10 µM.
Turning to `C#CCNC(=O)N1CCC(C(C)(C)C(O)c2cc(Cl)cc3[nH]ncc23)CC1` (stereo not drawn) [Compound P-0088, 4-(1-(6-chloro-1H-indazol-4-yl)-1-hydroxy-2-methylpropan-2-yl)-N-(prop-2-yn-1-yl)piperidine-1-carboxamide], the IC50 was 0.0001 to 10 µM at TDO, > 10 µM in test [1], 0.0001 to 10 µM in test [2] and 0.0001 to 10 µM at IDO1.
On to `COCC(=O)N1CCC(C(C)(C)C(O)c2cc(Cl)cc3[nH]ncc23)CC1` (stereo not drawn) [Compound P-0049, 1-(4-(1-(6-chloro-1H-indazol-4-yl)-1-hydroxy-2-methylpropan-2-yl)piperidin-1-yl)-2-methoxyethan-1-one], for which the IC50 (on TDO; in test [1]; in test [2]; at IDO1) was 0.0001 to 10 µM in each case.
Take `CC(C)(C1CCN(C(=O)NC2CCC2)CC1)C(O)c1cc(Cl)cc2[nH]ncc12` (stereo not drawn) [Compound P-0078, 4-(1-(6-chloro-1H-indazol-4-yl)-1-hydroxy-2-methylpropan-2-yl)-N-cyclobutylpiperidine-1-carboxamide]: the IC50 (at TDO; in test [1]; in test [2]; on IDO1) was 0.0001 to 10 µM each time.
As for `CC(C)(C1CCN(C(=O)NC2CC2)CC1)C(O)c1cc(Cl)cc2[nH]ncc12` (stereo not drawn) [Compound P-0081, 4-(1-(6-chloro-1H-indazol-4-yl)-1-hydroxy-2-methylpropan-2-yl)-N-cyclopropylpiperidine-1-carboxamide], the IC50 (at TDO; in test [1]; in test [2]; on IDO1) was 0.0001 to 10 µM each time.
Consider `CC(C)(C1CCN(C(=O)C2CCOCC2)CC1)C(O)c1cc(Cl)cc2[nH]ncc12` (stereo not drawn) [Compound P-0048, (4-(1-(6-chloro-1H-indazol-4-yl)-1-hydroxy-2-methylpropan-2-yl)piperidin-1-yl)(tetrahydro-2H-pyran-4-yl)methanone], for which the IC50 (at TDO; in test [1]; in test [2]; on IDO1) was 0.0001 to 10 µM each time.
As to `CC(C)(C1CCN(C(=O)C2CCC2)CC1)C(O)c1cc(Cl)cc2[nH]ncc12` (stereo not drawn) [Compound P-0052, (4-(1-(6-chloro-1H-indazol-4-yl)-1-hydroxy-2-methylpropan-2-yl)piperidin-1-yl)(cyclobutyl)methanone], the IC50 (at TDO; in test [1]; in test [2]; on IDO1) was 0.0001 to 10 µM throughout.
For `CNCC(=O)N1CCC(C(C)(C)[C@H](O)c2cc(Cl)cc3cn[nH]c23)CC1` [Compound P-0128, (S)-1-(4-(1-(5-chloro-1H-indazol-7-yl)-1-hydroxy-2-methylpropan-2-yl)piperidin-1-yl)-2-(methylamino)ethan-1-one], the IC50 (at TDO; in test [1]; in test [2]; on IDO1) was 0.0001 to 10 µM in each case.
Turning to `CCNC(=O)N1CCC(C(C)(C)C(O)c2cc(Cl)cc3[nH]ncc23)CC1` (stereo not drawn) [Compound P-0076, 4-(1-(6-chloro-1H-indazol-4-yl)-1-hydroxy-2-methylpropan-2-yl)-N-ethylpiperidine-1-carboxamide], the IC50 (at TDO; in test [1]; in test [2]; at IDO1) was 0.0001 to 10 µM throughout.

As a reminder, the IC50 is the concentration that inhibits the measured activity by half.

For the origin of these results see patent US11149011B2, “Compounds and methods for IDO and TDO modulation, and indications therefor” (Plexxikon Inc., priority 2018, dated 2021).
